Patent publication US12258328B2, “6-membered heteroaryl-containing aminopyridine compounds as EGFR inhibitors” (YUHAN CORPORATION, priority 2021, dated 2025)
Where two headings read alike, the source gives them in different places.

Assays:
EGFR del19/C797S = EGFR del19/C797S (Homo sapiens, UniProt P00533, C797S/DEL746-750); experiment: Biochemical EGFR kinase assay (Lance Ultra TR-FRET), double mutant del19/C797S
Method in brief: (§1)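 Enzyme reactions lasted 1 hour at room temperature with test compounds between 0.003 and 10 μM, followed by 10 mM EDTA quench.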

EGFR L858R/T790M/C797S = EGFR L858R/T790M/C797S (Homo sapiens, UniProt P00533, C797S/L858R/T790M); experiment: Biochemical EGFR kinase assay (Lance Ultra TR-FRET), triple mutant L858R/T790M/C797S
Chain of EGFR L858R/T790M/C797S (P00533 25-1210 T790M/C797S/L858R): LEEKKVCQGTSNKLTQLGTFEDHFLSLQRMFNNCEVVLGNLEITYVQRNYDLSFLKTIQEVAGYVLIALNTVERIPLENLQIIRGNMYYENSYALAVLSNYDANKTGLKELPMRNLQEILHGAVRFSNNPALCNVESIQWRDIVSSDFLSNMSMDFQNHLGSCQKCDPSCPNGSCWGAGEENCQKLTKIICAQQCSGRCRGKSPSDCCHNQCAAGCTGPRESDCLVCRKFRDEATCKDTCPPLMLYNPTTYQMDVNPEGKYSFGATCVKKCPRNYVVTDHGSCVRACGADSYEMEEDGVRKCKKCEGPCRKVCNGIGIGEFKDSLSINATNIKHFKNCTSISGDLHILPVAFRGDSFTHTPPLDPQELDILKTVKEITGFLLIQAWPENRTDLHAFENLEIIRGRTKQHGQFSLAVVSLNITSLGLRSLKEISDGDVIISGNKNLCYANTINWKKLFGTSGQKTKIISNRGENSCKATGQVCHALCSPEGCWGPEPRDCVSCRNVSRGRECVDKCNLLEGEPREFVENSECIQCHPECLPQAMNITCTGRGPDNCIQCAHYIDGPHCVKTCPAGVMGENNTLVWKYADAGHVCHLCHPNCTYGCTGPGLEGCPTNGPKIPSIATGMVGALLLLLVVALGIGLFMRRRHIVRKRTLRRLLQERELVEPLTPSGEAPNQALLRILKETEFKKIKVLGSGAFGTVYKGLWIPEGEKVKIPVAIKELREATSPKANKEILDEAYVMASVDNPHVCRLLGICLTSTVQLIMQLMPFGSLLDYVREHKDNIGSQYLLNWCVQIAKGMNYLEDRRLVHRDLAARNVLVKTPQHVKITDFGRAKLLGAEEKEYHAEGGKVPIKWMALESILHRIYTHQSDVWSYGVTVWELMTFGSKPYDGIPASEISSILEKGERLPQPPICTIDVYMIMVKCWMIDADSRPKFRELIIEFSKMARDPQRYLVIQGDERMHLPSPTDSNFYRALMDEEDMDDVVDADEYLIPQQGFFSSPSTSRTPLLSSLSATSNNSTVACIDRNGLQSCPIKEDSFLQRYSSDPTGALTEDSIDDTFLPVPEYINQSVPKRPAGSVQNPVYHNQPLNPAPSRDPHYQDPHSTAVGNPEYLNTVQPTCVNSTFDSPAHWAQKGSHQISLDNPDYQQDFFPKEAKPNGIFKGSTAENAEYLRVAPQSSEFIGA
Method in brief: as §1

EGFR L858R/C797S = EGFR L858R/C797S (Homo sapiens, UniProt P00533, C797S/L858R); experiment: Biochemical EGFR kinase assay (Lance Ultra TR-FRET), double mutant L858R/C797S
Chain of EGFR L858R/C797S (P00533 25-1210 C797S/L858R): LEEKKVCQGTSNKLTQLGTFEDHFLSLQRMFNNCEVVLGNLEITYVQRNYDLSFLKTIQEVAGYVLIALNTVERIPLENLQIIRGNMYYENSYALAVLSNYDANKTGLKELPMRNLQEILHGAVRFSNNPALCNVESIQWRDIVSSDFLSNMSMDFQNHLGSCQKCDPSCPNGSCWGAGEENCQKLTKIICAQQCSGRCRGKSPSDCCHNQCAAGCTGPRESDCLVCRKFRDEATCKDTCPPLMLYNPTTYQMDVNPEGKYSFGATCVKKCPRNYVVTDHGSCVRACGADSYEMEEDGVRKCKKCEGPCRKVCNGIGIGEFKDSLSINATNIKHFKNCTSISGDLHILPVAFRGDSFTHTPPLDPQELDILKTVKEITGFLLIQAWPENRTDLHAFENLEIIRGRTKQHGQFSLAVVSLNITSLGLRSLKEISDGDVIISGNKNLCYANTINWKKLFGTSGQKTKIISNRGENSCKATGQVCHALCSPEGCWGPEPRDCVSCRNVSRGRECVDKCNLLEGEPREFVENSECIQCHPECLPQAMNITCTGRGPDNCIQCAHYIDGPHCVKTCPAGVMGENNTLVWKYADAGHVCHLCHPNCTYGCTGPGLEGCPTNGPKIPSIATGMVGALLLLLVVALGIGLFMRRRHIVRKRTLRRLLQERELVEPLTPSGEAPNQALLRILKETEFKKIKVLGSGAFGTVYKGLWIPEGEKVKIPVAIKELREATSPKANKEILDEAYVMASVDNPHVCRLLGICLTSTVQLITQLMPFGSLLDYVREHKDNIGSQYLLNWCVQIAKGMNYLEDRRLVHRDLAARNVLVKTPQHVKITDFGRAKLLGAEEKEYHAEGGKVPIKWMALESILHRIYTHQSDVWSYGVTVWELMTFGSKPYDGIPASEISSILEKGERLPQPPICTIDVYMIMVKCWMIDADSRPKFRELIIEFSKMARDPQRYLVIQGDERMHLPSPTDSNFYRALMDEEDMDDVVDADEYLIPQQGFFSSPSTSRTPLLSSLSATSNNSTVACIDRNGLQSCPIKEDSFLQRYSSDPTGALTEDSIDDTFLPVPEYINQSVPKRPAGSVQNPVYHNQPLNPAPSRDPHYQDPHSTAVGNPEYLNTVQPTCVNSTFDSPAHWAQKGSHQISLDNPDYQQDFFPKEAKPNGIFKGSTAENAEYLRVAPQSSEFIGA
Method in brief: as §1

EGFR wildtype = EGFR wildtype (Homo sapiens, UniProt P00533); experiment: Biochemical EGFR kinase assay (Lance Ultra TR-FRET), wildtype
Method in brief: as §1

EGFR del19/T790M/C797S = EGFR del19/T790M/C797S (Homo sapiens, UniProt P00533, C797S/DEL746-750/T790M); experiment: Biochemical EGFR kinase assay (Lance Ultra TR-FRET), triple mutant del19/T790M/C797S
Chain of EGFR del19/T790M/C797S (P00533 with tags, fused parts or gaps DEL746-750/T790M/C797S): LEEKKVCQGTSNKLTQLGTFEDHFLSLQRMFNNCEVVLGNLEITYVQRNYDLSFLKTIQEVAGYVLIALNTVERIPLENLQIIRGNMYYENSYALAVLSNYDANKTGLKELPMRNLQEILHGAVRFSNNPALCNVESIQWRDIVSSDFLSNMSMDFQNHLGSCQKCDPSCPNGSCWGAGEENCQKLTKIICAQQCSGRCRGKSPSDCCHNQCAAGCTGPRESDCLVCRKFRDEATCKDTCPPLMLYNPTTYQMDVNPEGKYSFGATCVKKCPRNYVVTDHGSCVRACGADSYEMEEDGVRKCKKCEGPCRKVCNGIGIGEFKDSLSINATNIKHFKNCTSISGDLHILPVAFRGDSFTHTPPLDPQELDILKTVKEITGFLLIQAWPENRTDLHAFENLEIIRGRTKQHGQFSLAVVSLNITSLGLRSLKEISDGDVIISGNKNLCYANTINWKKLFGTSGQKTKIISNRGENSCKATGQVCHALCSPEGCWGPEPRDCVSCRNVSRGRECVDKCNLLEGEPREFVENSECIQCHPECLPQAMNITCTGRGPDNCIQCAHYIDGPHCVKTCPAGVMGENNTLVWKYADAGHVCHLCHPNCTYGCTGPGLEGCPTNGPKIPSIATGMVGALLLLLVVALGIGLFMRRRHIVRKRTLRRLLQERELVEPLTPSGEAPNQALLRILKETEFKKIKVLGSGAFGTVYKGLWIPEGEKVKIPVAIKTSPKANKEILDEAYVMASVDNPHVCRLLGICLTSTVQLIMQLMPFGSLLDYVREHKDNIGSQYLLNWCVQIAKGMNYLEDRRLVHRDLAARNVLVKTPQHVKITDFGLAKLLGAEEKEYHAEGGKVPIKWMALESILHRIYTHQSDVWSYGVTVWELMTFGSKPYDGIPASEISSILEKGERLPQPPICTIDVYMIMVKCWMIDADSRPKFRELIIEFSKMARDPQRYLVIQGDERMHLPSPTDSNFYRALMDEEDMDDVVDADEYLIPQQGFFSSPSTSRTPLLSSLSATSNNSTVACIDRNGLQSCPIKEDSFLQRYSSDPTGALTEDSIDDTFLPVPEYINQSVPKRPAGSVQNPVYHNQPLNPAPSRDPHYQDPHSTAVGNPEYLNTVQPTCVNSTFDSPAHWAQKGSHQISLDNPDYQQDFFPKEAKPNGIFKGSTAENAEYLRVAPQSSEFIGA
Method in brief: as §1

[1] = IC50 del19/C797S (nM) 100 μM ATP, 100 μM ATP
[2] = Km ATP, read-out: IC50 del19/C797S (nM) Km ATP
[3] = IC50 L858R/T790M/C797S (nM) 100 μM ATP, 100 μM ATP
[4] = Km ATP, read-out: IC50 L858R/T790M/C797S (nM) Km ATP
[5] = IC50 L858R/C797S (nM) 100 μM ATP, 100 μM ATP
[6] = Km ATP, read-out: IC50 L858R/C797S (nM) Km ATP
[7] = IC50 WT (nM) 100 μM ATP, 100 μM ATP
[8] = Km ATP, read-out: IC50 WT (nM) Km ATP
[9] = IC50 del19/T790M/C797S (nM) 100 μM ATP, 100 μM ATP
[10] = Km ATP, read-out: IC50 del19/T790M/C797S (nM) Km ATP
[11] = ATP at Km, read-out: IC50 del19/C797S, Km ATP
[12] = IC50 L858R/T790M/C797S, 100 μM ATP
[13] = ATP at Km, read-out: IC50 L858R/C797S, Km ATP
[14] = ATP at Km, read-out: IC50 WT, Km ATP
[15] = IC50 del19/T790M/C797S, 100 μM ATP
[16] = ATP at Km, read-out: IC50 del19/T790M/C797S, Km ATP
[17] = ATP at Km, read-out: IC50 L858R/T790M/C797S, Km ATP

Chain of EGFR del19/C797S (P00533 with tags, fused parts or gaps DEL746-750/C797S): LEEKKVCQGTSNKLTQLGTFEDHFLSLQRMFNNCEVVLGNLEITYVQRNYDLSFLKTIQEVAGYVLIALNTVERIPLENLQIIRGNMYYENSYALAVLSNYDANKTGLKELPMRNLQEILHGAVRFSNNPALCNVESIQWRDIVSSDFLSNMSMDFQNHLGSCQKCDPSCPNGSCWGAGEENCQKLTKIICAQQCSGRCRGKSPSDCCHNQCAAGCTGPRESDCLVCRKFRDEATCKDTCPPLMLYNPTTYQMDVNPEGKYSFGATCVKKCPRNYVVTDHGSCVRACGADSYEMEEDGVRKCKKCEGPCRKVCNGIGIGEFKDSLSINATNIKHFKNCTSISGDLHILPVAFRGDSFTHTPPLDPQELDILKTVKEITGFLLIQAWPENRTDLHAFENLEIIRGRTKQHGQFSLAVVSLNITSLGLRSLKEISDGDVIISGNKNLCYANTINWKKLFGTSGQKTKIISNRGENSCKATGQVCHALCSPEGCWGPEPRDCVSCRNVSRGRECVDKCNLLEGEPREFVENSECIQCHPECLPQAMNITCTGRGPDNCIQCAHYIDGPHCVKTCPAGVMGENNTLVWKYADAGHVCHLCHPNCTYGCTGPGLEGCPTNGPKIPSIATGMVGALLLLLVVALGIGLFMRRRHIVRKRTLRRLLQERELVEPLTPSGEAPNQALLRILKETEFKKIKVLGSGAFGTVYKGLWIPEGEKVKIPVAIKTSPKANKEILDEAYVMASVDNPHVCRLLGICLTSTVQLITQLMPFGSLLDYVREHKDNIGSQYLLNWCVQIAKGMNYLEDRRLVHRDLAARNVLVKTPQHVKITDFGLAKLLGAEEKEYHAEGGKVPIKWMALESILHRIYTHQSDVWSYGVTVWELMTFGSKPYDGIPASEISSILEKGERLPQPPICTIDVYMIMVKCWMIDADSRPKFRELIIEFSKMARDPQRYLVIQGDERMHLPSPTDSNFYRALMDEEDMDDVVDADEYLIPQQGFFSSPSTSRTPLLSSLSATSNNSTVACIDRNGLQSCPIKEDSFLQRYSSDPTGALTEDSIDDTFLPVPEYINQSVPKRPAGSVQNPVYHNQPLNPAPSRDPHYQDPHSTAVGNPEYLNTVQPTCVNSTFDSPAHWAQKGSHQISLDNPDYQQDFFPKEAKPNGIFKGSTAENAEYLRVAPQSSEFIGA

Row | SMILES | IC50 (EGFR del19/C797S; [1]) [nM] | IC50 (EGFR del19/C797S; [2]) [nM] | IC50 (EGFR L858R/T790M/C797S; [3]) [nM] | IC50 (EGFR L858R/T790M/C797S; [4]) [nM] | IC50 (EGFR L858R/C797S; [5]) [nM] | IC50 (EGFR L858R/C797S; [6]) [nM] | IC50 (EGFR wildtype; [7]) [nM] | IC50 (EGFR wildtype; [8]) [nM] | IC50 (EGFR del19/T790M/C797S; [9]) [nM] | IC50 (EGFR del19/T790M/C797S; [10]) [nM] | IC50 (EGFR del19/C797S; [11]) [nM] | IC50 (EGFR del19/C797S; IC50 del19/C797S, 100 μM ATP) [nM] | IC50 (EGFR L858R/T790M/C797S; [12]) [nM] | IC50 (EGFR L858R/C797S; [13]) [nM] | IC50 (EGFR L858R/C797S; IC50 L858R/C797S, 100 μM ATP) [nM] | IC50 (EGFR wildtype; [14]) [nM] | IC50 (EGFR wildtype; IC50 WT, 100 μM ATP) [nM] | IC50 (EGFR del19/T790M/C797S; [15]) [nM] | IC50 (EGFR del19/T790M/C797S; [16]) [nM] | IC50 (EGFR L858R/T790M/C797S; [17]) [nM]
1 | CN(C)Cc1cnc(-c2cnc(Nc3ccnc(-c4cnn(S(=O)(=O)C5CC5)c4)n3)cc2N[C@H]2CC[C@@](C)(O)CC2)cn1 [Example 65, (1s,4s)-4-((2-((2-(1-(Cyclopropylsulfonyl)-1H-pyrazol-4-yl)pyrimidin-4-yl)amino)-5-(5-((dimethylamino)methyl)pyrazin-2-yl)pyridin-4-yl)amino)-1-methylcyclohexan-1-ol] | 0.2 | 0.3 | 0.3 | 0.1 | 0.9 | 0.1 | 1140 | 2.4 | 0.1 | 0.1 |  |  |  |  |  |  |  |  |  | 
2 | CN1CCN(S(=O)(=O)c2ccc(-c3cnc(Nc4ccnc(-c5cnn(S(=O)(=O)C6CC6)c5)n4)cc3N[C@H]3CC[C@@H](CO)CC3)nc2)CC1 [Example 189, ((1s,4s)-4-((6′-((2-(1-(Cyclopropylsulfonyl)-1H-pyrazol-4-yl)pyrimidin-4-yl)amino)-5-((4-methylpiperazin-1-yl)sulfonyl)-[2,3′-bipyridin]-4′-yl)amino)cyclohexyl)methanol] |  |  |  |  |  |  |  |  |  |  | 2.2 | 1.7 | 0.8 | 0.9 | 7.9 | 6.9 | 1770 | 1.4 |  | 
3 | COc1cnc(-c2cnc(Nc3ccnc(-c4cnn(S(=O)(=O)C5CC5)c4)n3)cc2N[C@H]2CC[C@@](C)(O)CC2)cn1 [Example 56, (1s,4s)-4-((2-((2-(1-(Cyclopropylsulfonyl)-1H-pyrazol-4-yl)pyrimidin-4-yl)amino)-5-(5-methoxypyrazin-2-yl)pyridin-4-yl)amino)-1-methylcyclohexan-1-ol] | 8.8 | 5.9 | 2.4 |  | 122 |  | > 10000 | 169 | 1.4 |  |  |  |  |  |  |  |  |  |  | 
4 | CC(C)(O)[C@H]1CC[C@@H](Nc2cc(Nc3ccnc(-c4cnn(S(=O)(=O)C5CC5)c4)n3)ncc2-c2ccc(S(=O)(=O)N3CCOCC3)cn2)CC1 [Example 184, 2-((1s,4s)-4-((6′-((2-(1-(Cyclopropylsulfonyl)-1H-pyrazol-4-yl)pyrimidin-4-yl)amino)-5-(morpholinosulfonyl)-[2,3′-bipyridin]-4′-yl)amino)cyclohexyl)propan-2-ol] |  |  |  |  |  |  |  |  |  |  | 2.7 | 12.2 | 0.8 | 2.2 | 12.9 | 15.2 | > 10000 | 2.8 | 9.1 | 
5 | CC(C)(O)[C@H]1CC[C@@H](Nc2cc(Nc3ccnc(-c4cnn(S(=O)(=O)C5CC5)c4)n3)ncc2-c2ccc(N3CCC(F)(F)CC3)nn2)CC1 [Example 71, 2-((1s,4s)-4-((2-((2-(1-(Cyclopropylsulfonyl)-1H-pyrazol-4-yl)pyrimidin-4-yl)amino)-5-(6-(4,4-difluoropiperidin-1-yl)pyridazin-3-yl)pyridin-4-yl)amino)cyclohexyl)propan-2-ol] | 44.2 |  | 4.1 |  | 355 |  | > 10000 |  | 4.5 |  |  |  |  |  |  |  |  |  |  | 
6 | CN1CC(Oc2ccc(-c3cnc(Nc4ccnc(-c5cnn(S(=O)(=O)C6CC6)c5)n4)cc3N[C@H]3CC[C@@](C)(O)CC3)nc2)C1 [Example 289, (1s,4s)-4-((6′-((2-(1-(Cyclopropylsulfonyl)-1H-pyrazol-4-yl)pyrimidin-4-yl)amino)-5-((1-methylazetidin-3-yl)oxy)-[2,3′-bipyridin]-4′-yl)amino)-1-methylcyclohexan-1-ol] |  |  |  |  |  |  |  |  |  |  | 0.1 | 0.2 | 0.1 | 0.1 | 0.8 | 0.3 | 206 | 0.2 | 0.2 | 0.1
7 | CN1CCC(Oc2ccc(-c3cnc(Nc4ccnc(-c5cnn(S(=O)(=O)C6CC6)c5)n4)cc3NC3CCC(F)(F)CC3)nc2)CC1 [Example 255, N^6′-(2-(1-(Cyclopropylsulfonyl)-1H-pyrazol-4-yl)pyrimidin-4-yl)-N^4′-(4,4-difluorocyclohexyl)-5-((1-methylpiperidin-4-yl)oxy)-[2,3′-bipyridine]-4′,6′-diamine] |  |  |  |  |  |  |  |  |  |  | 0.5 |  |  | 0.02 |  | 1.9 |  |  | 0.1 | 0.03
8 | CC(C)(F)c1ccc(-c2cnc(Nc3ccnc(-c4cnn(S(=O)(=O)C5CC5)c4)n3)cc2N[C@H]2CC[C@@H](CO)CC2)nc1 [Example 235, ((1s,4s)-4-((6′-((2-(1-(Cyclopropylsulfonyl)-1H-pyrazol-4-yl)pyrimidin-4-yl)amino)-5-(2-fluoropropan-2-yl)-[2,3′-bipyridin]-4′-yl)amino)cyclohexyl)methanol] |  |  |  |  |  |  |  |  |  |  | 3.1 |  | 2.7 | 1 | 8.1 | 4.9 | 692 |  | 1 | 0.8
9 | CN(C)C[C@H]1CC[C@@H](Nc2cc(Nc3ccnc(-c4cnn(S(=O)(=O)C5CC5)c4)n3)ncc2-c2cnc(N3CCC(F)(F)CC3)cn2)CC1 [Example 74, N^2-(2-(1-(Cyclopropylsulfonyl)-1H-pyrazol-4-yl)pyrimidin-4-yl)-5-(5-(4,4-difluoropiperidin-1-yl)pyrazin-2-yl)-N^4-((1s,4s)-4-((dimethylamino)methyl)cyclohexyl)pyridine-2,4-diamine] | 2.4 | 0.7 | 2.8 | 0.6 | 43.9 | 3.2 | 1610 | 9.1 | 2.2 | 1.6 |  |  |  |  |  |  |  |  |  | 
10 | C[C@]1(O)CC[C@@H](Nc2cc(Nc3ccnc(-c4cnn(S(=O)(=O)C5CC5)c4)n3)ncc2-c2ncccc2OCC(F)(F)F)CC1 [Example 333, (1s,4s)-4-((6′-((2-(1-(Cyclopropylsulfonyl)-1H-pyrazol-4-yl)pyrimidin-4-yl)amino)-3-(2,2,2-trifluoroethoxy)-[2,3′-bipyridin]-4′-yl)amino)-1-methylcyclohexan-1-ol] |  | 460 |  | 2.6 |  | 795 |  | 117 |  | 4.1 |  |  |  |  |  |  |  |  |  | 
11 | CN(C)C[C@H]1CC[C@@H](Nc2cc(Nc3ccnc(-c4cnn(S(=O)(=O)C5CC5)c4)n3)ncc2-c2cc(C(C)(C)O)c(F)cn2)CC1 [Example 107, 2-(6′-((2-(1-(Cyclopropylsulfonyl)-1H-pyrazol-4-yl)pyrimidin-4-yl)amino)-4′-(((1s,4s)-4-((dimethylamino)methyl)cyclohexyl)amino)-5-fluoro-[2,3′-bipyridin]-4-yl)propan-2-ol] | 0.5 | 0.1 | 0.2 | 0.2 | 1.8 | 0.1 | 327 | 0.4 | 0.4 | 0.3 |  |  |  |  |  |  |  |  |  | 
12 | O=S(=O)(C1CC1)n1cc(-c2nccc(Nc3cc(N[C@H]4CC[C@@H](CCO)CC4)c(-c4cc(C(F)F)ccn4)cn3)n2)cn1 [Example 97, 2-((1s,4s)-4-((6′-((2-(1-(Cyclopropylsulfonyl)-1H-pyrazol-4-yl)pyrimidin-4-yl)amino)-4-(difluoromethyl)-[2,3′-bipyridin]-4′-yl)amino)cyclohexyl)ethan-1-ol] | 6 | 2.3 | 1 | 0.5 | 52.6 | 2 | > 10000 | 7.4 | 2.2 | 2.1 |  |  |  |  |  |  |  |  |  | 
13 | CN1CCC(Oc2cnc(-c3cnc(Nc4ccnc(-c5cnn(S(=O)(=O)C6CC6)c5)n4)cc3N[C@H]3CC[C@@H](F)CC3)cn2)CC1 [Example 144, N^2-(2-(1-(Cyclopropylsulfonyl)-1H-pyrazol-4-yl)pyrimidin-4-yl)-N^4-((1s,4s)-4-fluorocyclohexyl)-5-(5-((1-methylpiperidin-4-yl)oxy)pyrazin-2-yl)pyridine-2,4-diamine] |  | 2.2 |  | 0.1 |  | 1.2 |  | 26.3 |  | 0.3 |  |  |  |  |  |  |  |  |  | 
14 | CC(C)(O)C1CCC(Nc2cc(Nc3ccnc(-c4cnn(S(=O)(=O)C5CC5)c4)n3)ncc2-c2ccc(C(C)(O)C(F)(F)F)cn2)CC1 (stereo not shown) [Example 233, 2-(6′-((2-(1-(Cyclopropylsulfonyl)-1H-pyrazol-4-yl)pyrimidin-4-yl)amino)-4′-(((1s,4s)-4-(2-hydroxypropan-2-yl)cyclohexyl)amino)-[2,3′-bipyridin]-5-yl)-1,1,1-trifluoropropan-2-ol] |  |  |  |  |  |  |  |  |  |  | 7.1 | 19.2 | 2.7 | 4.7 | 36 | 18.3 | 6750 | 6.3 | 4.7 | 0.9
